Here are results for one substance from patent US20220372433A1 (priority 2021, published 2022).

The subject of assay [1] is Lactobacillus plantarum. Set-up: unit not given here. As to conditions: regulatory cut-off for Lactobacillus plantarum; cited from earlier work.
Assay [2] has as its system Lactobacillus plantarum HG-23. Description: Antibiotic sensitivity test (microdilution method, MIC). It counts as cell-based. As to conditions: cultured for 48 h. On the procedure:
The antibiotic resistance of HG-23 was detected by a microdilution method. a series of 2-fold dilutions were performed on antibacterial drugs to be tested (Gentamicin, Kanamycin, Tetracycline, Erythromycin, Clindamycin, Chloramphenicol, Amplicilin, with initial concentrations of 1024 ug/ml, 256 ug/ml, 64 ug/ml, 8 ug/ml, 16 ug/ml, 64 ug/ml, 16 ug/ml) for 12 times, then added into corresponding wells of 96-well plates, and then […] diluted test bacterial solutions were added into the corresponding wells. After being cultured for 48 h, the minimum inhibitory concentration (MIC) well of the antibacterial drug, namely the sensitivity of the test strain, was observed.

Regarding Gentamicin, the “EFSA specified safety value (Lactobacillus plantarum)” value in assay [1] is reported as 16. For the same substance, in assay [2], the “minimum inhibitory concentration (MIC) of antibiotic against HG-23” value amounted to 8 µg/mL.
